Results taken from ChEMBL document CHEMBL1201862, “PubChem BioAssay data set” (2004).
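Growth conditions: 96-well plates. Treatment: test compound, 48 hours, 5 concentrations. Analysis: linear interpolation between bracketing concentrations; unreached endpoints set to highest concentration. Here, GI50 denotes the concentration required for 50% inhibition of growth.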 Activity calls are given as the source filed them. Cut-off read from the data, not from the text of the source: active = GI50 up to about 1.1 µM and inactive = higher.

Legend:
Assay in all cases: NCI-60 cell line screen, 48 h
SK-MEL-5 = system: SK-MEL-5
EKVX = system: EKVX
LOX IMVI = system: LOX IMVI
SF-268 = system: SF-268
MDA-N = system: MDA-N
HCT-116 = system: HCT-116
U-251 = system: U-251
IGROV-1 = system: IGROV-1
MDA-MB-435 = system: MDA-MB-435
NCI-H226 = system: NCI-H226
SF-539 = system: SF-539
UO-31 = system: UO-31
KM12 = system: KM12
UACC-62 = system: UACC-62
SN12C = system: SN12C
SK-MEL-2 = system: SK-MEL-2
SK-OV-3 = system: SK-OV-3
A549 = system: A549
HL-60 = system: HL-60
SNB-75 = system: SNB-75

Measured: GI50

O=C1CSC(c2ccccc2)N1c1ccc(-n2c(-c3ccccc3)nc3ccccc3c2=O)cc1 (stereo not given)
inactive: SK-MEL-5 47.4 µM | EKVX > 75.7 µM | LOX IMVI 50.5 µM | SF-268 96.8 µM | MDA-N > 79.1 µM | HCT-116 39.2 µM | U-251 59.8 µM | IGROV-1 34.8 µM | MDA-MB-435 63.4 µM | NCI-H226 > 77.3 µM | SF-539 65.2 µM | UO-31 28.4 µM | KM12 41.1 µM | UACC-62 33.3 µM | SN12C 99.3 µM | SK-MEL-2 > 100 µM | SK-OV-3 > 100 µM | A549 > 74.6 µM | HL-60 41.8 µM | SNB-75 > 100 µM

O=c1[nH]nc(Cc2ccccc2)n1/N=C\CC/C=N\n1c(Cc2ccccc2)n[nH]c1=O
inactive: SK-MEL-5 29.2 µM | EKVX 36.6 µM | LOX IMVI 15.7 µM | SF-268 23.8 µM | MDA-N 44.7 µM | HCT-116 18.5 µM | U-251 34 µM | IGROV-1 14.3 µM | MDA-MB-435 34.6 µM | NCI-H226 33.9 µM | SF-539 19 µM | UO-31 > 100 µM | KM12 > 100 µM | UACC-62 16.8 µM | SN12C > 100 µM | SK-MEL-2 31.3 µM | SK-OV-3 31.3 µM | A549 > 100 µM | HL-60 21.9 µM | SNB-75 24.4 µM

COc1cc(/C=C/C(=O)CC(=O)/C=C/c2ccc(OC(=O)CCCCC3CCSS3)c(OC)c2)ccc1OC(=O)CCCCC1CCSS1 (stereo not given)
inactive: SK-MEL-5 > 100 µM | EKVX > 100 µM | LOX IMVI > 100 µM | SF-268 > 100 µM | MDA-N > 100 µM | HCT-116 > 100 µM | U-251 > 100 µM | IGROV-1 > 100 µM | MDA-MB-435 > 100 µM | NCI-H226 > 100 µM | SF-539 > 100 µM | UO-31 > 100 µM | KM12 > 100 µM | UACC-62 > 100 µM | SN12C > 100 µM | SK-MEL-2 > 100 µM | SK-OV-3 > 100 µM | A549 > 100 µM | HL-60 > 100 µM | SNB-75 > 100 µM

Cc1ccc2cc3c(ccc4ccccc43)c3c2c1CC3 [3-METHYLCHOLANTHRENE]
inactive: SK-MEL-5 > 100 µM | EKVX 75.5 µM | LOX IMVI > 100 µM | SF-268 > 100 µM | MDA-N > 100 µM | HCT-116 > 100 µM | U-251 > 100 µM | IGROV-1 > 100 µM | MDA-MB-435 > 100 µM | NCI-H226 > 100 µM | SF-539 > 100 µM | UO-31 > 100 µM | KM12 > 100 µM | UACC-62 > 100 µM | SN12C > 100 µM | SK-MEL-2 > 100 µM | SK-OV-3 > 100 µM | A549 > 100 µM | HL-60 > 100 µM | SNB-75 > 100 µM

C[n+]1[n-]o/c(=N\N=O)c1-c1cc(-c2/c(=N/N=O)o[n-][n+]2C)cc(-c2/c(=N\N=O)o[n-][n+]2C)c1
inactive: SK-MEL-5 > 100 µM | EKVX > 100 µM | LOX IMVI > 100 µM | SF-268 > 100 µM | MDA-N > 100 µM | HCT-116 > 100 µM | U-251 > 100 µM | IGROV-1 > 100 µM | MDA-MB-435 > 100 µM | NCI-H226 > 100 µM | SF-539 > 100 µM | UO-31 > 100 µM | KM12 > 100 µM | UACC-62 > 100 µM | SN12C > 100 µM | SK-MEL-2 > 100 µM | SK-OV-3 > 100 µM | A549 > 100 µM | HL-60 > 100 µM | SNB-75 68.1 µM

CCOC(=O)c1cc(C2(O)CCN(CC(C)CC)C2=O)c(-c2cc(C)no2)[nH]1 (stereo not given)
inactive: SK-MEL-5 > 100 µM | EKVX > 100 µM | LOX IMVI > 100 µM | SF-268 > 100 µM | MDA-N > 100 µM | HCT-116 > 100 µM | U-251 > 100 µM | IGROV-1 > 100 µM | MDA-MB-435 > 100 µM | NCI-H226 > 100 µM | SF-539 > 100 µM | UO-31 > 100 µM | KM12 > 100 µM | UACC-62 > 100 µM | SN12C > 100 µM | SK-MEL-2 > 100 µM | SK-OV-3 > 100 µM | A549 > 100 µM | HL-60 > 100 µM | SNB-75 > 100 µM
